Experimental data from US20170313974A1, “Modulation of Tissue Fatty Acid Composition of a Host by Human Gut Bacteria” (University College Cork, National University of Ireland, priority 2007, published 2017).
Marks after values point to notes of the source that are not given here.

Assays:
BALB/c mice [1] = experiment: Tissue fatty acid composition, BALB/c α-linolenic acid feeding trial (8 weeks); format: in vivo
Protocol: Female BALB/c mice were purchased from Harlan ltd. (Briester, Oxon, UK) at 8 weeks of age and fed a normal diet for 1 week to stabilize all metabolic conditions. […] Mice were maintained at 4 per cage and exposed to a 12-h light:dark cycle at a constant temperature of 25° C. The mice were held at the Biological Services Unit in University College Cork. The animal experimentation was performed according to the guidelines for the care and use of laboratory animals approved by the Department of Health and Children.
(§1) Animals were fed standard mouse chow ad libitum with free access to water at all times. […] Following 8 weeks on experimental diets, the animals were sacrificed by cervical dislocation. Liver, adipose tissue and brain were removed from the carcasses, blotted dry on filter paper, weighed and frozen in liquid nitrogen. All samples were stored at −80° C. until processed.
Lipids were extracted according to the method by O'Fallon et al. (20). Briefly, samples were cut into 1.5-mm rectangular strips and placed into a screw-cap Pyrex culture tube together with 0.7 ml of 10 N KOH in water and 5.3 ml of MeOH. The tubes were incubated in a 55° C. water bath for 1.5 h with vigorous hand-shaking every 20 min. After cooling below room temperature, 0.58 ml of 24 N H2SO4 in water was added. The tubes were mixed by inversion and with precipitated K2SO4 present incubated again in 55° C. for 1.5 h with hand-shaking every 20 min. FAME were recovered by addition of 3 ml hexane and vortex mixed and separated by GLC (Varian 3400, Varian, Walnut Creek, Calif. USA fitted with a flame ionization detector) using a Chrompack CP Sil 88 column (Chrompack, Middleton, The Netherlands, 100 m×0.25 mm i.d., 0.20 μm film thickness) and He as carrier gas. The column oven was initially programmed at 80° C. for 8 min, and increased 8.5° C./min to a final column temperature of 200° C. The injection volume was 0.6 μl, with automatic sample injection on a SPI 1093 splitless on-column temperature programmable injector. Data were recorded and analysed on a Minichrom PC system (VG Data System, Manchester, U.K.). Peaks were identified with reference to retention times of fatty acids in a standard mixture. All fatty acid results are shown as mean±standard error mean (SEM) g/100 g FAME.

[2] = Body weight gain, BALB/c α-linolenic acid trial; format: in vivo, BALB/c mice; details: 8 week trial period
Protocol: as §1

splenocytes = experiment: Cytokine production by stimulated splenocytes of fed SCID mice with colitis; format: in vivo
Protocol: (§2) Materials and Methods Severe Combined Immuno Deficient (SCID) mice were used in this study, which had been induced with colitis through adoptive transfer of splenic CD4^+ CD45RB^high T cells from BALB/c mice. […] Ten weeks after colitis induction, cytokine production by splenocytes was measured in vitro by ELISA, myeloperoxidase (MPO) activity was determined in colonic homogenates and fatty acid composition in liver, adipose tissue, cecum and colon was determined by gas liquid chromatography (GLC). Similar studies have also been conducted in pigs (data not shown here) and similar results obtained.
Cytokine production in response to defined stimuli, in vitro, was measured using enzyme-linked immunosorbent assay (ELISA). Splenocyte isolation was performed using an erythrocyte lysing kit (R&D Systems). The spleens of all mice were removed at the time of sacrifice, blotted on filter paper and weighed. Each spleen was immediately placed in Hanks' buffer containing 10% fetal calf serum. The spleen was teased apart and sieved through a cell strainer into a 50 ml centrifuge tube. Cells were centrifuged for 10 minutes at 200 g. The cells were resuspended in 2 ml M-lyse buffer, which lyses red blood cells, and incubated for 8 minutes at room temperature. Lysis was deactivated using wash buffer and the cell suspension was centrifuged for 10 minutes at 200 g. Cells were resuspended in DMEM (10% fetal calf serum, 1% Pen/Strep, Sigma) and diluted to 1×10^6 cells/ml for in vitro culturing. The isolated lymphocytes were cocultured with the proinflammatory bacterium Salmonella typhimurium UK1 (1×10^6 cells/ml) and with antiCD3-antiCD28 monoclonal antibodies for 48 hours at 37° C. Cell supernatants were isolated and stored at −80° C. Cytokine analysis was performed on the supernatants using a BD™ Cytometric Bead Array (CBA) Mouse Inflammation Kit (BD Biosciences, US).

SCID mice = experiment: Tissue fatty acid composition, SCID mouse colitis feeding study (10 weeks); format: in vivo
Protocol: as §2
(§3) SCID mice were purchased from Harlan ltd. (Briester, Oxon, UK) at 6 weeks of age and fed a normal diet for 1 week to stabilize all metabolic conditions. Each cage contained one mouse. Mice were exposed to a 12-h light:dark cycle and maintained at a constant temperature of 25° C. One week after arrival, mice were divided into five groups for different dietary treatments (Table I).
For linoleic acid and c9t11 CLA treatment, a powdered diet blended with the drug was administered for 10 weeks to yield a dose of drug at approximately 90 mg/day/mouse (this is based on preliminary experiments by Bassaganya-Riera et al. (22) that established an optimal dose of fatty acids of 1 g/100 g of diet).
After the adoptive transfer, mice were weighed three times a week and examined for clinical signs of disease associated with colitis (ie. rectal bleeding, diarrhoea and rectal prolapse). After 10 weeks on experimental diets, the mice were sacrificed by cervical dislocation. Livers, adipose tissue, spleens, colons and cecums were removed from the carcasses, blotted dry on filter paper, weighed and frozen in liquid nitrogen. All samples were stored at −80° C. until processed. The colon was divided into different sections for MPO activity and fatty acid composition.
(§4) Lipids were extracted with Chloroform:Methanol 2:1 v/v according to Folch et al. (25). Briefly, tissue or faecal samples, ˜1 g liver, 300 mg small intestine, 200 mg adipose tissue, 250 mg colon, 800 mg cecum or 100 mg feaces were homogenised in over a 25 fold excess of CHCl3:CH3OH (2:1 v/v) and washed with 0.88% KCl solution. Excess solvent was dried down under a gentle stream of N2 at 40° C. and lipids were stored at −20° C. in 1 ml chloroform. Fatty acid methyl esters (FAME) were prepared using first 10 ml 0.5N NaOH in methanol for 10 min at 90° C. followed by 10 ml 14% BF3 in methanol for 10 min at 90° C. (26). FAME was recovered with hexane. Prior to GC analysis samples were dried over 0.5 g of anhydrous sodium sulphate for an hour and stored at −20° C. FAME were separated by gas liquid chromatography (GLC Varian 3400, Varian, Walnut Creek, Calif. USA fitted with a flame ionization detector) using a Chrompack CP Sil 88 column (Chrompack, Middleton, The Netherlands, 100 m×0.25 mm i.d., 0.20 μm film thickness) and He as a carrier gas. The column oven was programmed to be held initially at 80° C. for 8 minutes then increased 8.5° C./min to a final column temperature of 200° C. The injection volume used was 0.6 μl with automatic sample injection with a splitless on SPI on-column temperature programmable injector. Data was recorded and analysed on a Minichrom PC system (VG Data System, Manchester, U.K.). Tri-heptadecanoate (Sigma) was used as an internal standard, and peaks were identified with reference to retention times of fatty acids in a standard mixture. All fatty acid results are shown as mean±SD (n=8) g/100 g FAME.

[3] = tested on: Myeloperoxidase (MPO) activity in colonic homogenates; experiment: Colonic mucosal myeloperoxidase (MPO) activity in SCID mice with colitis; format: in vivo; details: 10 weeks, mean ± SD, n = 8
Protocol: as §2, §3
SCID mice were induced with colitis through adoptive transfer of the CD4^+ CD45RB^high subpopulation of CD4+ T cells from normal BALB/c mice (Mackay et al. 1998). […]
Myeloperoxidase activity was measured according to the method by Krawisz et al. (24). […] The absorbance (OD) was measured spectrophotometrically at 450 nm at 1 min intervals for 15 min. […] Results are expressed as U/mg protein.

BALB/c mice [4] = experiment: Tissue and faecal fatty acid composition, BALB/c LA feeding trial (8 weeks); format: in vivo
Protocol: Male BALB/c mice were purchased from Harlan Ltd. (Briester, Oxon, UK). One week after arrival, these mice were divided into two groups (n=9) for different dietary treatments. […] Group B received 1% LA in their diet. For LA treatment, a powdered diet blended with the drug was administered for 8 weeks to yield a dose of drug at approximately 90 mg/day/mouse (this is based on preliminary experiments by Bassaganya-Riera et al. (1) that established an optimal dose of fatty acids of 1 g/100 g).
After 8 weeks on experimental diets, the mice were sacrificed by cervical dislocation. Livers, hearts, colons, small intestines and cecums were removed from the carcasses, blotted dry on filter paper, weighed and frozen in liquid nitrogen. All samples were stored at −80° C. until processed.
as §4

[5] = adipose tissue, 8 weeks, SEM, n = 8
[6] = stimulation with S. typhimurium UK1
[7] = stimulation with antiCD3-antiCD28

## CC/C=C\C/C=C\C/C=C\CCCCCCCC(=O)O [B, α-linolenic acid]
BALB/c mice [1]; [5]
  C16:0 palmitic acid, adipose tissue: 28.73 ± 2.16^c g/100 g FAME
  C16:1c9 palmitoleic acid, adipose tissue: 6.07 ± 2.01 g/100 g FAME
  C18:0 stearic acid, adipose tissue: 8.00 ± 2.33 g/100 g FAME
  C18:1c9 oleic acid, adipose tissue: 14.83 ± 3.01 g/100 g FAME
  C18:2n-6 linoleic acid, adipose tissue: 18.80 ± 0.81^c g/100 g FAME
  C18:3n-3 linolenic acid, adipose tissue: 7.35 ± 2.15^c,d g/100 g FAME
  C18:3n-6 γ-linolenic acid, adipose tissue: 0.13 ± 0.03 g/100 g FAME
  C18:4n-3 stearidonic acid, adipose tissue: 0.12 ± 0.03 g/100 g FAME
  C20:3n-6 dihomo-γ-linolenic acid, adipose tissue: 0.30 ± 0.09 g/100 g FAME
  C20:4n-6 arachidonic acid, adipose tissue: 5.27 ± 2.04^c,d g/100 g FAME
  C20:5n-3 eicosapentaenoic acid, adipose tissue: 2.37 ± 0.76^c,d g/100 g FAME
  C22:5n-3 docosapentaenoic acid, adipose tissue: 0.55 ± 0.14^c,d g/100 g FAME
  C22:6n-3 docosahexaenoic acid, adipose tissue: 1.17 ± 0.36 g/100 g FAME
  n-6/n-3, adipose tissue: 2.15 ± 0.15^c,d
BALB/c mice [1]; brain, 8 weeks, SEM, n = 8
  C16:0, brain: 32.38 ± 0.44^c g/100 g FAME
  C16:1c9, brain: 0.94 ± 0.03^a,c,d g/100 g FAME
  C18:0, brain: 19.87 ± 0.14^a g/100 g FAME
  C18:1c9, brain: 17.61 ± 0.24^ g/100 g FAME
  C18:2n-6, brain: 1.54 ± 0.10^a,c,d g/100 g FAME
  C20:4n-6, brain: 6.88 ± 0.12^c,d g/100 g FAME
  C20:5n-3, brain: 0.15 ± 0.01^c,d g/100 g FAME
  C22:5n-3, brain: 0.24 ± 0.01^c g/100 g FAME
  C22:6n-3, brain: 8.87 ± 0.30^a g/100 g FAME
  n-6/n-3, brain: 0.89 ± 0.03^a
BALB/c mice [1]; brain, 8 weeks, SEM, n = 8, ND = not detected
  C18:3n-3, brain: 0.18 ± 0.02^a,c,d g/100 g FAME
BALB/c mice [1]; compared with group C and group D, p<0.001
  higher concentrations of α-linolenic acid and EPA in liver and adipose tissue: 10 fold
BALB/c mice [1]; compared with group D
  arachidonic acid/EPA ratio in adipose tissue, fold lower: ~20 fold
  arachidonic acid/EPA ratio in liver, fold lower: approximately 30 fold
BALB/c mice [1]; liver, 8 weeks, SEM, n = 8
  C16:0 palmitic acid, liver: 23.89 ± 0.71^c,d g/100 g FAME
  C16:1c9 palmitoleic acid, liver: 2.07 ± 0.18^a,d g/100 g FAME
  C18:0 stearic acid, liver: 12.36 ± 0.44^a,d g/100 g FAME
  C18:1c9 oleic acid, liver: 10.16 ± 0.62^c,d g/100 g FAME
  C18:2n-6 linoleic acid, liver: 18.32 ± 0.21^d g/100 g FAME
  C18:3n-3 linolenic acid, liver: 9.47 ± 0.64^c,d g/100 g FAME
  C18:3n-6 γ-linolenic acid, liver: 0.17 ± 0.01^c,d g/100 g FAME
  C18:4n-3 stearidonic acid, liver: 0.16 ± 0.01^c,d g/100 g FAME
  C20:3n-6 dihomo-γ-linolenic acid, liver: 0.61 ± 0.02^a g/100 g FAME
  C20:4n-6 arachidonic acid, liver: 5.57 ± 0.14^a,c,d g/100 g FAME
  C20:5n-3 eicosapentaenoic acid, liver: 3.07 ± 0.12^a,c,d g/100 g FAME
  C22:5n-3 docosapentaenoic acid, liver: 0.94 ± 0.05^c,d g/100 g FAME
  C22:6n-3 docosahexaenoic acid, liver: 5.66 ± 0.28^d g/100 g FAME
  n-6/n-3, liver: 1.30 ± 0.07^c,d
[2]
  body weight gain: did not significantly influence

## CCCCCC/C=C/C=C\CCCCCCCC(=O)O [c9, t11 CLA, cis-9, trans-11 CLA]
splenocytes; [6]
  IFN-γ levels: reduced
  IL-6 levels: reduced
  TNF-α levels: 1428.7
splenocytes; [7]
  IFN-γ levels: 1334.2
  IL-6 levels: 213.7
  TNF-α levels: 458.9
SCID mice; all tissues
  16:1n-7 (palmitoleic acid) in all tissues: higher
SCID mice; cecum digests
  20:4n-6 in cecum digests: significant decrease
SCID mice; colon
  16:0 (palmitic acid) in colon: significantly higher
SCID mice; compared to other groups
  arachidonic acid, 20:4n-6 (AA) in liver: decrease
  c9, t11 CLA in all tissues: much higher

## CCCCC/C=C\C/C=C\CCCCCCCC(=O)O [LA, linoleic acid]
[3]
  MPO colon: 1.16 ± 0.23 U/mg protein
splenocytes; compared to control
  proinflammatory cytokines: no reduction
SCID mice; cecum digesta, mean ± SD, n = 8
  c9, t11 CLA in cecum digesta: 0.08 ± 0.02^ g/100 g FAME
SCID mice; faeces
  c9, t11 CLA in faeces: 0.09 g/100 g FAME
SCID mice; liver, mean ± SD, n = 8
  c9, t11 CLA in liver: 0.01 ± 0.01^2 g/100 g FAME
BALB/c mice [4]; faeces after 8 weeks
  LA in faeces: 27.4±7.16
BALB/c mice [4]; faeces harvested after 8 weeks
  c9, t11 CLA in faeces: 0.35±0.25 g/100 g FAME
BALB/c mice [4]; large intestine, 8 weeks
  c9, t11 CLA in large intestine: 0.07±0.02 g/100 g FAME
BALB/c mice [4]; liver, 8 weeks
  c9, t11 CLA in liver: 0.05±0.03 g/100 g FAME
BALB/c mice [4]; small intestine, 8 weeks
  c9, t11 CLA in small intestine: 0.03±0.01
